What was measured:
[1] = target: T1, human Kv1.1/Kvβ1 potassium ion channel complex (Homo sapiens, UniProt Q09470+Q14722); experiment: Inhibiting the inactivation of Kv1.1/Kvβ1 potassium ion channel complex, voltage clamp current recordings in Xenopus oocytes; format: cell-based; settings: relative to control oocytes without test compound, read-out: Percent Increase in Steady State Current (@ concentration shown in parentheses)
T1 construct: expressed in transfected cells; host or cells: Xenopus oocytes injected with cRNA
T1 sequence (Q09470 whole entry): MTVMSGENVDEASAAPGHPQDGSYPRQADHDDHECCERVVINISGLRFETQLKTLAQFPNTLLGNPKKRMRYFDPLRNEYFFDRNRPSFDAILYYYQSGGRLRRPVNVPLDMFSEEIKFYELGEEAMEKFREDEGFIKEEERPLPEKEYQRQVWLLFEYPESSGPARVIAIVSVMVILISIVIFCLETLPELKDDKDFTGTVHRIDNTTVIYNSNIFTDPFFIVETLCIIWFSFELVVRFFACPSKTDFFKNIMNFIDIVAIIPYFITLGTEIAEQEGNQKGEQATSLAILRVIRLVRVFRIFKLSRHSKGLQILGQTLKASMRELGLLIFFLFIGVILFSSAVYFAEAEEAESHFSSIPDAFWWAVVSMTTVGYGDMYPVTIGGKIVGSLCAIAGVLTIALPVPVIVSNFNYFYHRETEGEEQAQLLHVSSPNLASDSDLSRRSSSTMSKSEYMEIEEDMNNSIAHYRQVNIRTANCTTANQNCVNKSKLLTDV
T1 sequence (Q14722 whole entry): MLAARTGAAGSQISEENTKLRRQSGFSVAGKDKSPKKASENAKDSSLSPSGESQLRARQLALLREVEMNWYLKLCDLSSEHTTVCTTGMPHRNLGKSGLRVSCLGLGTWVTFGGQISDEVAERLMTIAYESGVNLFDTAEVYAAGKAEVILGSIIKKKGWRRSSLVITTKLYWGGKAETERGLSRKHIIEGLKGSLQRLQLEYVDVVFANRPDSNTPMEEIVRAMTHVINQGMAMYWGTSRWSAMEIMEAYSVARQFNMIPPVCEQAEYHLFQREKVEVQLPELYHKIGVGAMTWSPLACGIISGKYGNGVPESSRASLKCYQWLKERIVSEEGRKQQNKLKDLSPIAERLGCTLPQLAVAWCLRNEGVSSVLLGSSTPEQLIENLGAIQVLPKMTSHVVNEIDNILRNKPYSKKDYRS
Experimental: Compounds useful in this invention were examined for their ability to inhibit the inactivation of the human Kv1.1/Kvβ1 potassium ion channel complex in vitro using electrophysiological current recordings on inactivating Kv1.1/Kvβ1channels expressed in Xenopus oocytes. The following procedure was used.
Xenopus oocytes were harvested from frogs under general anesthesia using aseptic techniques. Oocytes were treated with 2 mg/ml collagenase for 1-1.5 hr, defolliculated, and injected with 40 nL cRNA (a mixture of hKv1.1 and hKvβ1) produced using standard molecular biological techniques (Sambrook, et al., 1989, Molecular Cloning: A Laboratory Manual). The concentration of hKv1.1/hKvβ1 cRNA varies, but was generally about 50 ng/μL hKv1.1 and […] hkβ1.
Currents were recorded using standard voltage clamp amplifiers at room temperature. Recordings were performed in the bath solution “ND-96” containing 96 mM NaCl, 2 mM KCl, 1 mm CaCl2, 1 mM MgCl2, 10 mM HEPES and […] Gentamycin (pH=7.6). The pipette (electrode) solution generally consisted of 3 mM KCl. Electrodes were made from WPI TW150F-4 borosilicate glass (or equivalent) and typically had resistances of 0.5-1.5 Mohms. The standard current—voltage (IV) pulse protocol consisted of voltage steps from −60 mV to +50 mV, in 10 mV increments for 200 ms, at a frequency of one IV set per 2 minutes. Data were digitized and analyzed by standard software packages.
Test compounds where first dissolved in DMSO to an initial concentration of 1-100 mM. Working dilutions of 1:2000 to 1:500 were made in the bath solution for final concentrations in the micromolar range. The bath solutions containing the test compounds were applied by bath perfusion using gravity or pump-driven flow. A minimum of 2 mL (10 times the bath volume) over 3 minutes were flowed for each compound concentration tested. Data were averaged across at least 3 cells tested for each concentration.
Test compounds were examined for their ability to inhibit the inactivation of the steady state portion of the IV curve.

Structure (SMILES)	melting point [°C]	activation at 50 µM [1] [%]	activation at 100 µM [1] [%]	activation at 300 µM [1] [%]
CCC1(C)CC(=O)C(C(=O)Nc2cccc(C(F)(F)F)c2)C(=O)C1 (centres unmarked) [Example 13, N-(3-trifluoromethylphenyl)-4-ethyl-4-methyl-2,6-dioxocyclohexanecarboxamide]	81 to 82	9	–	–
CCC1(C)CC(=O)C(C(=O)Nc2ccc(F)c(Cl)c2)C(=O)C1 (centres unmarked) [Example 16, N-(3-chloro-4-fluororphenyl)-4-ethyl-4-methyl-2,6-dioxocyclohexanecarboxamide]	91 to 92	18	–	–
CC1(C)CC(=O)C(C(=S)Nc2ccc(Cl)c(Cl)c2)C(=O)C1 [Example 3, N-(3,4-dichlorophenyl)-4,4-dimethyl-2,6-dioxocyclohexanecarbothioamide]	113 to 116	–	–	–
CCOC(=O)C1C(=O)C(C(=O)Nc2cccc(C(F)(F)F)c2)C(=O)C2CCCCC21 (centres unmarked) [Example 31, 2,4-Dioxo-3-(3-trifluoromethyl-phenylcarbamoyl)-decahydro-naphthalene-1-carboxylic acid ethyl ester]	–	227	–	–
CCC1(C)CC(=O)C(C(=O)Nc2ccc(C(F)(F)F)cc2)C(=O)C1 (centres unmarked) [Example 17, N-(4-trifluoromethylphenyl)-4-ethyl-4-methyl-2,6-dioxocyclohexanecarboxamide]	99 to 100	105	–	–
CC1(C)CC(=O)C(C(=O)Nc2ccc([N+](=O)[O-])cc2)C(=O)C1 [Example 12, 4,4-dimethyl-N-(4-nitrophenyl)-2,6-dioxocyclohexanecarboxamide]	–	–	104	–
CC1(C)CC(=O)C(C(=O)Nc2cccc([N+](=O)[O-])c2)C(=O)O1 (centres unmarked) [Example 22, N-(3-nitrophenyl)-6,6-dimethyl-2,4-dioxotetrahydro-2H-pyran-3-carboxamide]	138.4 to 139.6	10	–	–
CC1(C)CC(=O)C(C(=O)Nc2ccc(Cl)c(C(F)(F)F)c2)C(=O)O1 (centres unmarked) [Example 19, N-[4-chloro-3-(trifluoromethyl)phenyl]-6,6-dimethyl-2,4-dioxotetrahydro-2H-pyran-3-carboxamide]	156 to 156.4	68	–	–
CC1(C)CC(=O)C(C(=O)Nc2ccc(Cl)c(C(F)(F)F)c2)C(=O)C1 [Example 5, N-[4-chloro-3-(trifluoromethyl)phenyl]-4,4-dimethyl-2,6-dioxocyclohexanecarboxamide]	–	16	–	–
CC1(C)CC(=O)C(C(=O)Nc2ccccc2[N+](=O)[O-])C(=O)C1 [Example 6, 4,4-dimethyl-N-(2-nitrophenyl)-2,6-dioxocyclohexanecarboxamide]	–	–	58	–
O=C1OC2(CCCC2)OC(=O)C1C(=S)Nc1ccc(Cl)c(C(F)(F)F)c1 [Example 34, 7,9-Dioxo-6,10-dioxa-spiro[4.5]decane-8-carbothioic acid(4-chloro-3-trifluoromethyl-phenyl)-amide]	–	–	–	95
CC(C)C1CC(=O)C(C(=O)Nc2ccc(Cl)c(Cl)c2)C(=O)C1 (centres unmarked) [Example 10, N-(3,4-dichlorophenyl)-4-isopropyl-2,6-dioxocyclohexanecarboxamide]	138	38	–	–
CC1(C)CC(=O)C(C(=O)Nc2cc(F)cc(F)c2)C(=O)C1F (centres unmarked) [Example 29, 3-Fluoro-4,4-dimethyl-2,6-dioxo-cyclohexanecarboxylic acid(3,5-difluoro-phenyl)-amide]	131 to 132	258	–	–
CC1(C)CC(=O)C(C(=O)Nc2ccc(C(F)(F)F)cc2)C(=O)O1 (centres unmarked) [Example 20, N-[4-(trifluoromethyl)phenyl]-6,6-dimethyl-2,4-dioxotetrahydro-2H-pyran-3-carboxamide]	175.9 to 176.4	17	–	–
COCC1C(=O)C(C(=O)Nc2cccc(C(F)(F)F)c2)C(=O)CC1(C)C (centres unmarked) [Example 33, 3-Methoxymethyl-4,4-dimethyl-2,6-dioxo-cyclohexanecarboxylic acid (3-trifluoromethyl-phenyl)-amide]	–	1	–	–
CC1(C)CC(=O)C(C(=O)Nc2ccc(Cl)c(Cl)c2)C(=O)O1 (centres unmarked) [Example 23, N-(3,4-dichlorophenyl)-6,6-dimethyl-2,4-dioxotetrahydro-2H-pyran-3-carboxamide]	212 to 215	22	–	–
CC1(C)CC(=O)C(C(=O)Nc2cc(Cl)cc(Cl)c2)C(=O)C1F (centres unmarked) [Example 28, 3-Fluoro-4,4-dimethyl-2,6-dioxo-cyclohexanecarboxylic acid(3,5-dichloro-phenyl)-amide]	–	279	–	–
CC1(C)COC(=O)C(C(=O)Nc2ccc(Cl)c(C(F)(F)F)c2)C1=O (centres unmarked) [Example 26, N-[4-chloro-3-(trifluoromethyl)phenyl]-5,5-dimethyl-2,4-dioxotetrahydro-2H-pyran-3-carboxamide]	144 to 145	173	–	–
CC1(C)CC(=O)C(C(=O)Nc2cccc(C(F)(F)F)c2)C(=O)C1c1ccccc1 (centres unmarked) [Example 30, 4,4-Dimethyl-2,6-dioxo-3-phenyl-cyclohexanecarboxylic acid(3-trifluoromethyl-phenyl)-amide]	–	8	–	–
CCC1(C)CC(=O)C(C(=O)Nc2ccc(Cl)c(C(F)(F)F)c2)C(=O)C1 (centres unmarked) [Example 14, N-(4-chloro-3-trifluoromethylphenyl)-4-ethyl-4-methyl-2,6-dioxocyclohexanecarboxamide]	87 to 88	98	–	–
CC1(c2ccccc2)CCC(=O)C(C(=O)Nc2cccc(C(F)(F)F)c2)C1=O (centres unmarked) [Example 32, 3-Methyl-2,6-dioxo-3-phenyl-cyclohexanecarboxylic acid(3-trifluoromethyl-phenyl)-amide]	–	6	–	–
CC1(C)CC(=O)C(C(=S)Nc2ccc(Cl)c(C(F)(F)F)c2)C(=O)C1 [Example 4, N-[4-chloro-3-(trifluoromethyl)phenyl]-4,4-dimethyl-2,6-dioxocyclohexane-carbothioamide]	101 to 102	–	–	9
CC1(C)COC(=O)C(C(=O)Nc2ccc(C(F)(F)F)cc2)C1=O (centres unmarked) [Example 25, N-[4-(trifluoromethyl)phenyl]-5,5-dimethyl-2,4-dioxotetrahydro-2H-pyran-3-carboxamide]	–	10	–	–
O=C1CSCC(=O)C1C(=O)Nc1ccc(Cl)c(C(F)(F)F)c1 [Example 11, N-[4-chloro-3-(trifluoromethyl)phenyl]-3,5-dioxotetrahydro-2H-thiopyran-4-carboxamide]	108 to 110	106	–	–
CC1(C)CC(=O)C(C(=O)Nc2cccc(C(F)(F)F)c2)C(=O)O1 (centres unmarked) [Example 21, N-[3-(trifluoromethyl)phenyl]-6,6-dimethyl-2,4-dioxotetrahydro-2H-pyran-3-carboxamide]	149.6 to 150.1	13	–	–
CC1(C)CC(=O)C(C(=O)Nc2ccc(C(F)(F)F)cc2)C(=O)C1F (centres unmarked) [Example 27, 3-Fluoro-4,4-dimethyl-2,6-dioxo-cyclohexanecarboxylic acid(4-trifluoromethyl-phenyl)-amide]	129	191	–	–
CCC1(C)CC(=O)C(C(=O)Nc2cc(C(F)(F)F)cc(C(F)(F)F)c2)C(=O)C1 (centres unmarked) [Example 18, N-(3,5-bis-trifluoromethylphenyl)-4-ethyl-4-methyl-2,6-dioxocyclohexanecarboxamide]	72 to 73	106	–	–
CC1(C)COC(=O)C(C(=O)Nc2cccc(C(F)(F)F)c2)C1=O (centres unmarked) [Example 24, N-[3-(trifluoromethyl)phenyl]-5,5-dimethyl-2,4-dioxotetrahydro-2H-pyran-3-carboxamide]	–	5	–	–
CCC1(C)CC(=O)C(C(=O)Nc2ccc(Cl)c(Cl)c2)C(=O)C1 (centres unmarked) [Example 15, N-(3,4-dichlorophenyl)-4-ethyl-4-methyl-2,6-dioxocyclohexanecarboxamide]	74 to 75	64	–	–
CC1(C)CC(=O)C(C(=O)Nc2ccc(Cl)cc2C(F)(F)F)C(=O)C1 [Example 7, N-[4-chloro-2-(trifluoromethyl)phenyl]-4,4-dimethyl-2,6-dioxocyclohexanecarboxamide]	–	–	45	–
